This is an account of results in patent US20200345008A1, “Increased grape yields with brassinosteroid application” (priority 2019, published 2020).

Data set [1] concerns grapes of the variety Flame Seedless. Type of data set: in vivo. An excerpt: Treatment (HBR) was twice applied to grapes of the variety Flame Seedless. Treatments consisted of either HBR or ProGibb (ProGibb 4%, a plant growth regulator commonly used on table grapes for berry thinning and/or increasing berry size). At the first application (Day 0) the grapes were approximately 3 mm in diameter. The second application was seven days later (Day 7) when the grapes were approximately 6 mm in diameter. The HBR was applied with a backpack mist blower at a rate if 100 gallons per acre. Grapes were evaluated for Cluster Color Rating and Cluster Color Intensity (Hue) on about Day 65 by comparing test subjects with the control of condition 1. The same data set was analyzed for berry weight, berry firmness, Brix units, and phytotoxicity.

In data set [2] the test system is grapes (var. Scarlet Royal). As to the kind of experiment: Experiment 2: HBR spray application on Scarlet Royal grapes. The class given is in vivo. The conditions noted are these: for berry hue / cluster color / soluble solids: evaluations Days 54-97; for ripening responses: ethephon standard treatment (Day 45), versus untreated check. The text has this:
Homobrassinolide (HBR) was applied on grapes (var. Scarlet Royal) at late bloom (Day 0), or at late bloom (Day 0) and again at approximately 1 week after berry set (Day 7). Grapes were approximately 3 mm in diameter at Day 0 and 6 mm in diameter at Day 7. HBR was applied at rates of 0.5 ppm/aiA, 1.0 ppm/aiA, and 2.0 ppm/aiA. Spray applications were made using a backpack mistblower to simulate commercial airblast applications at 100 gpa. Controls were an untreated group, and a group that received the standard treatment with Ethephon approximately two weeks after color break (Day 45). Evaluations were made at Days 54, 66, 75, 82, 90, and 97. All treated groups also received Latron B1956 which was added to each tank mix as a surfactant (0.125% v/v). Soluble solids, cluster color, and berry hue were enhanced by HBR and the ethephon standard treatment. […] Results are illustrated in Table 3 (FIG. 4).

A further data set relates to grapes. The note with it: Lenahan et al., 2006; cited from earlier work.
Setting [3] is: HBR on Day 0 at 2.5 ppm/aiA, versus control, evaluated about Day 65.
[4] abbreviates: two applications, or single application of 1.0 or 2.0 ppm/aiA, versus single application of 0.5 ppm/aiA HBR.

Consider `CC[C@@H](C(C)C)C(O)C(O)[C@@H](C)[C@H]1CC[C@H]2[C@@H]3COC(=O)[C@H]4C[C@H](O)[C@H](O)C[C@]4(C)[C@H]3CC[C@]12C` (stereo in doubt) [HBR, homobrassinolide], for which the “degrees Brix of the grapes” value in data set [1] (HBR on Day 0) is listed as “tended to increase”. Also, in data set [1] (setting [3]), the “color intensity per reddish cluster” value was “more intense color per reddish cluster than control” and the “percentage of clusters per plot that were noticeably reddish” value is listed as “increased the percentage of clusters per plot that were noticeably reddish”. In addition, in data set [1] (HBR treatment, versus control), the “color intensity within each identified reddish cluster” value is given as “increased the color intensity” and the “percentage of reddish grapes within each identified reddish cluster” value is “increased the percentage of reddish grapes”. Also, the phytotoxicity entry in data set [1] (in vivo) is given as “no observed phytotoxicity”. Also, in data set [2] (Scarlet Royal), the berry hue entry is listed as “enhanced”, the cluster color entry was “enhanced” and the soluble solids result is “enhanced”. Also, in data set [2] (double spray of 2 ppm ai HBR, compared to the ethephon standard treatment), the “efficacy ranking of treatments” value was “most efficacious treatment”. For the same compound, the ripening responses entry in data set [2] (double spray of 2 ppm ai HBR) is recorded as “significantly more effective than the untreated check”. Besides, in data set [2] (in vivo), the crop injury entry was “No crop injury was observed”. Further, the rate response result in data set [2] (single spray timing treatments (0.5, 1.0, 2.0 ppm/aiA) versus untreated check) is “positive rate response”. In data set [2] (setting [4]), the hue result is “greater hue”; the “percentages of clusters of color” value is on record as “increased percentages of clusters of color”; the “soluble solids and Brix degrees” value is “increased soluble solids and Brix degrees”.
Turning to `C=C1C[C@]23C[C@@]1(O)CC[C@H]2[C@@]12C=C[C@H](O)[C@@](C)(C(=O)O1)[C@H]2[C@@H]3C(=O)O` [GA3, gibberellic acid], the firmness of grapes result in the data set on grapes is given as “increase firmness”.
On to `O=P(O)(O)CCCl` [ethephon, Ethephon, reference compound], for which, in data set [2] (Scarlet Royal), the berry hue result was “enhanced”, the cluster color entry is “enhanced” and the soluble solids result is on record as “enhanced”. For the same compound, the crop injury result in data set [2] (all treatments, Scarlet Royal) is recorded as “No crop injury was observed”. The ripening responses result in data set [2] (double spray of 2 ppm ai HBR) is reported as “significantly more effective than the untreated check”.
